PubChem BioAssay AID1963866 (Molecular Pharmacology Branch, DTP, NCI, 2024)
pIC50: −log10 of the molar value.

Test system: PDC KRAS tumor spheroids with HUVEC/MSC, viability
Test: Anticancer human tumor 349418-098-R-PDC patient-derived lung adenocarcinoma cell line growth inhibition [KRAS2]
Conditions: for pIC50: curve of first compound; for viability, T/C: stronger effect = lower value
Description: Multicellular complex tumor spheroid response to RAS pathway inhibitors in combination with a targeted agents in patient-derived cell lines with oncogenic KRAS variants from multiple cancer types
A high-throughput screen of multi-cell type tumor spheroids was designed to identify active combinations of targeted small molecules and KRAS pathway inhibitors. Complex spheroids include a stromal component modeled by human endothelial cells (HUVEC) and fibroblasts modeled by human mesenchymal stem cells (MSCs). The concentration ranges selected for each drug and investigational agent were based upon clinically achievable concentrations if the clinical Cmax of the agent was known.
Compounds. The drugs and investigational agents: BI-3406 (NSC825286), BAY-293 (NSC824723), batoprotafib (TNO155; NSC825523), sotorasib (AMG 510; NSC818433), MRTX1257 (NSC819558), elimusertib (BAY 1895344; NSC800525), molibresib (GSK525762; NSC774829), temuterkib (LY3214996; NSC803410), venetoclax (NSC766270), alisertib (NSC759677), olaparib (NSC753686), talazoparib (NSC767125), erdafitinib (NSC781556), ipatasertib (NSC767898), cabozantinib (NSC761068), nintedanib (NSC756659), abemaciclib (NSC768073), docetaxel (NSC628503), trametinib (NSC758246), and sapanisertib (NSC764658) were obtained from the National Cancer Institute (NCI) Developmental Therapeutics Program Chemical Repository. The FDA-approved anticancer drug set is available from the Developmental Therapeutics Program. […] The stock solutions were prepared in dimethyl sulfoxide (DMSO, Sigma-Aldrich, St. Louis, MO, cat. D2650) at 800-fold the tested concentration and stored at -70 degrees C prior to their use. All drugs and investigational agents were tested over a range starting from a high concentration at or near the clinical Cmax and decreasing in half-log increments. If the clinical Cmax for an agent had not been determined, the highest concentration tested was 10 microM.
Cell Culture. All cells were maintained in an incubator at 37 degrees C and 5% CO2 with 95% humidity. The PDC lines were cultured according to standard operating procedures established by the NCI PDMR (https://pdmr.cancer.gov/sops/default.htm). Briefly, all PDCs were thawed and cultured in Matrigel-coated flasks prepared with a working solution of 1X Ham's F-12 nutrient mix, without supplementation (Invitrogen, Waltham, MA, cat. 11765054), 100 U/mL penicillin-streptomycin (Invitrogen, cat. 15140122), and 2.5% Matrigel (Corning Inc., Corning, NY, cat. 354248) for the first three passages. All PDCs were cultured in complete DMEM/F-12 media containing advanced DMEM/F-12 (Invitrogen, cat. 12634028), 4.9% defined fetal bovine serum, heat inactivated (HyClone Laboratories Inc., Logan, UT, cat. SH30070.03HI), 389 ng/mL hydrocortisone (Sigma-Aldrich, cat. H4001), 9.7 ng/mL human EGF recombinant protein (Invitrogen, cat. PHG0313), 23.4 microg/mL adenine (Sigma-Aldrich, cat. A2786), 97.3 U/mL penicillin-streptomycin (Invitrogen, cat. 15140122), 1.9 mM L-glutamine (Invitrogen, cat. 25030081), and 9.7 microM Y-27632 dihydrochloride (Tocris Bioscience, Bristol, United Kingdom, cat. 1254). The PDCs were cultured in complete DMEM/F12 media without 9.7 microM Y-27632 dihydrochloride for at least two passages prior to the screen. The established cell line HOP-62 was cultured in RPMI 1640 medium, HEPES (Invitrogen, cat. 22400105) with 10% defined fetal bovine serum (HyClone Laboratories Inc., cat. SH30070.03) and 2 mM L-glutamine (Invitrogen, cat. 25030081). The pooled donor HUVEC were cultured in endothelial cell growth medium 2 (PromoCell, Heidelberg, Germany, cat. C-22011) and the hMSC were cultured in mesenchymal stem cell growth medium 2 (PromoCell, cat. C-28009). For all experiments, HUVEC and hMSC were used at passages </=5, while the malignant cell lines were used at passages </=15. […]

[1] = second compound 0.1 µM, first compound 0.0316 µM
[2] = second compound 0.1 µM, first compound 0.1 µM
[3] = second compound 0.316 µM, first compound 0.0316 µM
[4] = second compound 0.316 µM, first compound 0.1 µM
[5] = second compound 1 µM, first compound 0.0316 µM
[6] = second compound 1 µM, first compound 0.1 µM
[7] = second compound 3.16 µM, first compound 0.0316 µM
[8] = second compound 3.16 µM, first compound 0.1 µM
[9] = second compound 10 µM, first compound 0.0316 µM
[10] = second compound 10 µM, first compound 0.1 µM
[11] = second compound 0.1 µM, first compound 0.316 µM
[12] = second compound 0.1 µM, first compound 1 µM
[13] = second compound 0.1 µM, first compound 3.16 µM
[14] = second compound 0.1 µM, first compound 10 µM
[15] = second compound 0.316 µM, first compound 0.316 µM
[16] = second compound 0.316 µM, first compound 1 µM
[17] = second compound 0.316 µM, first compound 3.16 µM
[18] = second compound 0.316 µM, first compound 10 µM
[19] = second compound 1 µM, first compound 0.316 µM
[20] = second compound 1 µM, first compound 1 µM
[21] = second compound 1 µM, first compound 3.16 µM
[22] = second compound 1 µM, first compound 10 µM
[23] = second compound 3.16 µM, first compound 0.316 µM
[24] = second compound 3.16 µM, first compound 1 µM
[25] = second compound 3.16 µM, first compound 3.16 µM
[26] = second compound 3.16 µM, first compound 10 µM
[27] = second compound 10 µM, first compound 0.316 µM
[28] = second compound 10 µM, first compound 1 µM
[29] = second compound 10 µM, first compound 3.16 µM
[30] = second compound 10 µM, first compound 10 µM
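Also: spheroids exposed to compounds for seven days before readout.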

Row | SMILES | pIC50 (second compound 0.1 µM) | pIC50 (second compound 0.316 µM) | pIC50 (second compound 1 µM) | pIC50 (second compound 3.16 µM) | pIC50 (second compound 10 µM) | viability, T/C [1] | viability, T/C [2] | viability, T/C [3] | viability, T/C [4] | viability, T/C [5] | viability, T/C [6] | viability, T/C [7] | viability, T/C [8] | viability, T/C [9] | viability, T/C [10] | viability, T/C [11] | viability, T/C [12] | viability, T/C [13] | viability, T/C [14] | viability, T/C [15] | further results
1 | CC(C)n1nc(-c2ccc3oc(N)nc3c2)c2c(N)ncnc21 + C=CC(=O)N1CCN(c2nc(=O)n(-c3c(C)ccnc3C(C)C)c3nc(-c4c(O)cccc4F)c(F)cc23)C(C)C1 | 9.08 | 9.06 | 9.26 | > 9.50 | > 9.50 | 7.63% | 6.75% | 7.39% | 6.37% | 6.75% | 6.16% | 6.06% | 6.09% | 6.65% | 6.48% | – | – | – | – | – | viability, T/C (second compound 0.1 µM, first compound 0.000316 µM): 87.7%; viability, T/C (second compound 0.1 µM, first compound 0.001 µM): 42.6%; viability, T/C (second compound 0.1 µM, first compound 0.00316 µM): 17.4%; viability, T/C (second compound 0.1 µM, first compound 0.01 µM): 9.72%; viability, T/C (second compound 0.316 µM, first compound 0.000316 µM): 70.5%; viability, T/C (second compound 0.316 µM, first compound 0.001 µM): 47%; viability, T/C (second compound 0.316 µM, first compound 0.00316 µM): 19%; viability, T/C (second compound 0.316 µM, first compound 0.01 µM): 8.07%; viability, T/C (second compound 1 µM, first compound 0.000316 µM): 68%; viability, T/C (second compound 1 µM, first compound 0.001 µM): 30.5%; viability, T/C (second compound 1 µM, first compound 0.00316 µM): 15.7%; viability, T/C (second compound 1 µM, first compound 0.01 µM): 8.07%; viability, T/C (second compound 3.16 µM, first compound 0.000316 µM): 37.9%; viability, T/C (second compound 3.16 µM, first compound 0.001 µM): 35.5%; viability, T/C (second compound 3.16 µM, first compound 0.00316 µM): 10.3%; viability, T/C (second compound 3.16 µM, first compound 0.01 µM): 7.68%; viability, T/C (second compound 10 µM, first compound 0.000316 µM): 26.1%; viability, T/C (second compound 10 µM, first compound 0.001 µM): 15.7%; viability, T/C (second compound 10 µM, first compound 0.00316 µM): 10.1%; viability, T/C (second compound 10 µM, first compound 0.01 µM): 7.31%
2 | COc1cc(Nc2ncc3c(n2)-c2ccc(Cl)cc2C(c2c(F)cccc2OC)=NC3)ccc1C(=O)O + C=CC(=O)N1CCN(c2nc(=O)n(-c3c(C)ccnc3C(C)C)c3nc(-c4c(O)cccc4F)c(F)cc23)C(C)C1 | > 7.50 | > 7.50 | > 7.50 | > 7.50 | > 7.50 | 29% | 18.9% | 45.5% | 34.7% | 14.8% | 32.8% | 30.7% | 32% | 29.8% | 39.5% | 20.6% | 42.2% | 61.3% | 39.2% | 50.7% | viability, T/C [16]: 59.3%; viability, T/C [17]: 42.7%; viability, T/C [18]: 37.5%; viability, T/C [19]: 54.8%; viability, T/C [20]: 69.5%; viability, T/C [21]: 53.1%; viability, T/C [22]: 42.8%; viability, T/C [23]: 48.5%; viability, T/C [24]: 37.5%; viability, T/C [25]: 40.9%; viability, T/C [26]: 35.7%; viability, T/C [27]: 33.7%; viability, T/C [28]: 35.4%; viability, T/C [29]: 36.8%; viability, T/C [30]: 29.3%
3 | COc1cc2nccc(Oc3ccc(NC(=O)C4(C(=O)Nc5ccc(F)cc5)CC4)cc3)c2cc1OC + C=CC(=O)N1CCN(c2nc(=O)n(-c3c(C)ccnc3C(C)C)c3nc(-c4c(O)cccc4F)c(F)cc23)C(C)C1 | 5.77 | 5.78 | 5.79 | 5.92 | > 7.50 | 99.4% | 98.3% | 93.2% | 92.2% | 83.2% | 80.7% | 62.1% | 64.5% | 30.1% | 38.1% | 90.7% | 78.6% | 13.2% | 18.1% | 86.4% | viability, T/C [16]: 75.9%; viability, T/C [17]: 9.48%; viability, T/C [18]: 22.8%; viability, T/C [19]: 73.2%; viability, T/C [20]: 76.7%; viability, T/C [21]: 10.7%; viability, T/C [22]: 14.3%; viability, T/C [23]: 58.6%; viability, T/C [24]: 56.4%; viability, T/C [25]: 10.2%; viability, T/C [26]: 16.6%; viability, T/C [27]: 36%; viability, T/C [28]: 30.1%; viability, T/C [29]: 7.88%; viability, T/C [30]: 9.17%
